According to patent US12492187B2, “Factor XI activation inhibitors” (Merck Sharp & Dohme LLC, priority 2020, dated 2025):
pEC50: −log10 of the molar value. Structures can show the parent of a compound that is named as a salt.

Target: T1, Human coagulation factor (F)XI (Homo sapiens, UniProt P03951)
T1 construct: purchased Haematologic Technologies Inc. (FXI); Enzyme Research Laboratories (FXIIa) HCXI-150 (FXI); HFXIIa (FXIIa)
Experiment: Inhibition of FXIIa mediated activation of FXI (activation of human Factor XI to XIa by human Factor α-XIIa)
Assay type: biochemical
Details: human FXI pre-incubated with compound 30 min at 22° C., activation by human FXIIa 60 min, z-GPR-AFC substrate, fluorescence 405/510 nm, 4 parameter logistic fit; read-out: Inhibition of FXIIa meditated activation of FXI
Procedure: Inhibition of FXIIa Mediated Activation of FXI
Activation of Human Factor XI to XIa by Human Factor α-XIIa
Assay was performed in 50 mM HEPES, 150 mM NaCl, 5 mM CaCl2, 0.1% PEG-8000, pH 7.4 buffer in black, flat-bottom, polystyrene microplates (Corning, Cat #3573). Serial dilutions (10-point, 3.333-fold) of the test compounds delivered as 10 mM DMSO stocks were prepared in the Labcyte Echo-qualified PP 384 well microplates (Labcyte, Cat #P-05525). Human coagulation factor (F)XI (Haematologic Technologies Inc., Cat #HCXI-150, concentration 46 nM, 19.5 uL) was pre-incubated with 0.5 uL of the test compounds for 30 min at 22° C. The activation was initiated by addition of 10 uL of human coagulation factor (F)XIIa (Enzyme Research Laboratories, Cat #HFXIIa, concentration 30 nM) and reaction proceeded for 60 min at 22° C., after which it was quenched by addition of a selective inhibitor of FXIIa (Compound 54 in WO2018093695) concentration 600 uM in DMSO, 1 uL). 10 min after the quench, 29 uL of z-GPR-AFC substrate (Sigma, Cat #C0980-10MG, concentration 200 uM) was added into each well and the detection reaction proceeded for 60 min at 22° C. Fluorescence at 405/510 nm was measured in end-point mode using an Envision plate-reader (Perkin Elmer). IDBS Activity Base XE (ABase) analysis using 4 parameter logistic fit was performed to determine Minimum, Maximum, EC50, and Slope Factor for each compound.

T1 sequence (P03951 19-625): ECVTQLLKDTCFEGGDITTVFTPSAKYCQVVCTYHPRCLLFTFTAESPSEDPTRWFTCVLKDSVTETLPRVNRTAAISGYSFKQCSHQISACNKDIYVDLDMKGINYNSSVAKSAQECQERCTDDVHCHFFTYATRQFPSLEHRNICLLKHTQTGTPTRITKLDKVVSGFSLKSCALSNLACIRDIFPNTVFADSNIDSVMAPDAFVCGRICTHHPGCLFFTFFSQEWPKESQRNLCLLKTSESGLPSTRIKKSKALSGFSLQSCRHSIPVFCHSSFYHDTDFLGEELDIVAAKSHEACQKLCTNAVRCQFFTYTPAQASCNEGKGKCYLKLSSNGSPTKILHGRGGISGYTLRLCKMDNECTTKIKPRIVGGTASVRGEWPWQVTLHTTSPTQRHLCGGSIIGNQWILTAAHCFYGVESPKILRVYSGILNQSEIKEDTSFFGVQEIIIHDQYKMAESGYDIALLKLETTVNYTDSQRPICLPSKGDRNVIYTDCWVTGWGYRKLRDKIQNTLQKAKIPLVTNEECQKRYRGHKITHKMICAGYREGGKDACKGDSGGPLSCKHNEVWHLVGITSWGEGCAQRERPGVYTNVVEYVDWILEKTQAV

**Q.** With `Cc1nc(C(=O)N2CCC(C#N)(c3ccccc3)CC2)cc(C(=O)N2CCC(Cc3ccccc3)CC2)c1C` [Example 30, 1-[4-(4-benzylpiperidine-1-carbonyl)-5,6-dimethyl-pyridine-2-carbonyl]-4-phenyl-piperidine-4-carbonitrile] as the compound, how does the pEC50 read?
**A.** Its pEC50 is 7.32.

**Q.** How did the pEC50 turn out when `Cc1nc(C(=O)N2CCC(C#N)(c3ccccc3)CC2)cc(C(=O)N2CCC(Cc3nccs3)CC2)c1C` [Example 28, 1-[5,6-dimethyl-4-[4-(thiazol-2-ylmethyl)piperidine-1-carbonyl]pyridine-2-carbonyl]-4-phenyl-piperidine-4-carbonitrile] was run?
**A.** The pEC50 was 7.21.

**Q.** `Cc1nc(C(=O)N2CCC(C#N)(c3ccccc3)CC2)cc(C(=O)N2CCC(C)(c3ccccc3)CC2)c1C` [Example 31, 1-[5,6-dimethyl-4-(4-methyl-4-phenyl-piperidine-1-carbonyl)pyridine-2-carbonyl]-4-phenyl-piperidine-4-carbonitrile] was tested. Which pEC50 did it give?
**A.** Its pEC50 is 6.91.

**Q.** `Cc1cnc(C(=O)N2CCC(C#N)(c3ccccc3)CC2)cc1C(=O)N1CCC(N2CCC(F)(F)C2)CC1` [Example 1, 1-(4-(4-(3,3-difluoropyrrolidin-1-yl)piperidine-1-carbonyl)-5-methylpicolinoyl)-4-phenylpiperidine-4-carbonitrile, 2,2,2-trifluoroacetate salt] was tested. Which pEC50 did it give?
**A.** Its pEC50 is 7.38.

**Q.** `Cc1nc(C(=O)N2CCC(C#N)(c3ccccc3)CC2)cc(C(=O)N2CCC(N3CCC(F)(F)C3)CC2)c1C` [Example 26, 1-[4-[4-(3,3-difluoropyrrolidin-1-ium-1-yl)piperidine-1-carbonyl]-5,6-dimethyl-pyridine-2-carbonyl]-4-phenyl-piperidine-4-carbonitrile; 2,2,2-trifluoroacetate] was tested. Which pEC50 did it give?
**A.** Its pEC50 is 6.98.

**Q.** `Cc1cnc(C(=O)N2CCC(C#N)(c3ccccc3)CC2)cc1C(=O)N1CCC2c3ccc(C#N)cc3OC2C1` (stereo not drawn) [Example 22, 2-[2-(4-cyano-4-phenyl-piperidine-1-carbonyl)-5-methyl-pyridin-1-ium-4-carbonyl]-3,4,4a,9a-tetrahydro-1H-benzofuro[2,3-c]pyridine-7-carbonitrile; 2,2,2-trifluoroacetate] was tested. Which pEC50 did it give?
**A.** The pEC50 was 7.26.
